Source: PubChem BioAssay AID1996
Converted amounts (≈) assume the structure as drawn.

Conditions: buffer; pH 7.4; 200.0 µM

Point of comparison: `Cc1nc(N2CCN(c3ccccc3F)CC2)[nH]c(=O)c1C`, solubility kinetic 14.6 µg/mL (≈ 48.3 µM). Against it:
- Cc1ccnc(NC(=O)c2ccccc2NC(=O)c2ccccc2)c1 — lower, < 0.2 µg/mL
- Cc1ccccc1C(=O)NC1CCN(CC(=O)NCc2ccccc2)CC1 — 3.3-fold higher, 47.7 µg/mL (≈ 131 µM)
- O=C1NC(c2ccccc2Br)=N/C1=C\c1ccco1 — within 1.5-fold, 13.6 µg/mL (≈ 42.9 µM)
- COCCN(C(=S)Nc1ccccc1C)C(C)c1ccco1 (stereo unspecified) — 3.1-fold higher, 45.7 µg/mL (≈ 144 µM)
- Cc1ccc(CC(=O)NCCCn2ccnc2)cc1 — higher, > 38.6 µg/mL
- CC1CCCCN1CC(=O)c1c[nH]c2ccccc12 (stereo unspecified) — higher, > 38.5 µg/mL
- Cc1ccccc1NC(=O)CC(=O)Nc1ccccc1C — higher, > 42.4 µg/mL
- CC(C)CCNC1c2ccccc2C(=O)N1Cc1ccccc1.Cl (stereo unspecified) — 2.4-fold lower, 6.2 µg/mL
- CNC(=O)c1c(NC(=O)C2=COCCO2)sc(C)c1C — higher, > 44.5 µg/mL
- CC(=O)N1c2ccccc2C(CBr)=CC1(C)C — 2.2-fold higher, 31.8 µg/mL (≈ 108 µM)
- CCOC(=O)c1cnc2c(ccc3ccccc32)c1NCCCN(C)C — 3.2-fold higher, 46.1 µg/mL (≈ 131 µM)
- O=C(Nc1ccc2ccccc2n1)c1ccc(Cl)cc1 — lower, < 0.3 µg/mL
- CC(NC(=O)c1cc2cc(F)ccc2[nH]1)c1ccccc1 (stereo unspecified) — 3.5-fold lower, 4.2 µg/mL (≈ 14.9 µM)
- CC1CCN(C(=O)c2ccccc2NC(=O)c2cccc(S(=O)(=O)N(C)C)c2)CC1 — 4.4-fold higher, 63.9 µg/mL (≈ 149 µM)
- O=C(CSc1cccc[n+]1[O-])N1CCCCCC1 — 1.8-fold higher, 27 µg/mL (≈ 101 µM)
- CCOC(=O)c1cn2nc(Oc3cccc(F)c3)ccc2n1 — higher, > 45.2 µg/mL
- O=C(COC(=O)c1cc(S(=O)(=O)N2CCOCC2)ccc1F)Nc1ccc2c(c1)OCO2 — 3.8-fold higher, 54.8 µg/mL (≈ 117 µM)
- CC1CCN(S(=O)(=O)c2ccc3[nH]c(=O)[nH]c3c2)CC1 — 4.6-fold lower, 3.2 µg/mL (≈ 10.8 µM)
- CCc1cccc(CC)c1NC(=O)CN1CCc2cc(OC)c(OC)cc2C1 — 2.7-fold higher, 38.8 µg/mL (≈ 101 µM)
- Cc1cc(NC(=O)C(C)SCC(=O)O)no1 (stereo unspecified) — higher, > 36.6 µg/mL
- O=C(CCCc1ccccc1)NCc1ccc(Cl)cc1 — 1.9-fold higher, 27.7 µg/mL (≈ 96.3 µM)
- O=C(NCCN1CCOCC1)c1cccc(Br)c1 — 3.2-fold higher, 46.4 µg/mL (≈ 148 µM)
- COc1ccc(C(=O)NC(=S)NC2CCCCC2)cc1 — 3-fold lower, 4.8 µg/mL (≈ 16.4 µM)
- Br.Clc1ccc(CNCC2CCCO2)cc1 (stereo unspecified) — higher, > 46 µg/mL
- Cc1ccc(C)c(N2CCN(CCCc3ccccc3)CC2)c1 — 3.2-fold lower, 4.6 µg/mL (≈ 14.9 µM)
- CCNCCC(CCC(C)C)c1ccc2c(c1)OCO2 (stereo unspecified) — 2.3-fold higher, 33.7 µg/mL (≈ 121 µM)
- Cc1ccc(S(=O)(=O)CCC(=O)NC2CCCC2)cc1 — higher, > 44.3 µg/mL
- COc1ccc(-c2nc(N)c(C#N)c(-c3cccnc3)c2C)cc1 — 5.2-fold lower, 2.8 µg/mL (≈ 8.85 µM)
- CCC(=O)c1c(NC(CC)CO)cc(C)oc1=O (stereo unspecified) — higher, > 38 µg/mL
- COc1ccc(NC(=O)C2C3C=CC(O3)C2C(=O)O)cc1 (stereo unspecified) — higher, > 43.4 µg/mL
- CCOC(=O)C1CCCN(C(=O)c2[nH]c3ccc(OC)cc3c2C)C1 (stereo unspecified) — higher, > 51.7 µg/mL
- O=C(O)CSC(=S)N1CCCC1 — 1.8-fold higher, 26.7 µg/mL (≈ 130 µM)
- CNCCc1ccc(OC)c(OC)c1 — higher, > 29.3 µg/mL
- C#CC(C)OC(=O)Nc1cnccc1C(F)(F)F (stereo unspecified) — 2.5-fold higher, 36 µg/mL (≈ 139 µM)
- Cc1ccc(CSCC(=O)NCc2ccc3c(c2)OCO3)cc1 — within 1.5-fold, 11.5 µg/mL (≈ 34.9 µM)
- Cl.N=C1CCCN1c1ccccc1O — 2.1-fold higher, 30.6 µg/mL
- Cc1ccc(S(=O)(=O)NC(C)C(=O)NCc2ccc(Cl)cc2)cc1 (stereo unspecified) — 2.1-fold lower, 6.9 µg/mL (≈ 18.8 µM)
- O=C(COc1ccc([N+](=O)[O-])cc1Cl)NCC1CCCO1 (stereo unspecified) — higher, > 47.2 µg/mL
- O=C(Nc1ccc(F)cc1)C1CCN(C(=O)c2ccc(F)cc2)CC1 — higher, > 51.7 µg/mL
- Brc1ccc(Nc2nc(-c3cccnc3)cs2)cc1 — 49-fold lower, 0.3 µg/mL (≈ 0.903 µM)
- COc1ccc(CCNC(=O)C2CCN(C(=O)c3ccccc3)CC2)cc1 — 3.4-fold higher, 49.2 µg/mL (≈ 134 µM)
- COC(=O)C1CCCN1C(=O)C12CC3CC(CC(C3)C1)C2 (stereo unspecified) — 2.9-fold higher, 41.9 µg/mL (≈ 144 µM)
- COc1cccc(C(=O)N2CCOCC2)c1 — 2.2-fold higher, 32.5 µg/mL (≈ 147 µM)
- O=C(CN1C(=O)C(=O)N(Cc2ccco2)C1=O)Nc1ccccc1 — higher, > 49.1 µg/mL
- CNC(=O)c1[nH]cnc1C(=O)Nc1ccccn1 — higher, > 36.8 µg/mL
- COc1nc2c(c(-c3cc(Br)cs3)c1C#N)Cc1ccccc1-2 — lower, < 0.4 µg/mL
- CC(=O)Nc1ccc(-c2nc3ccccc3c(=O)o2)cc1 — 29-fold lower, 0.5 µg/mL (≈ 1.78 µM)
- CC(=O)Nc1ccc2c(c1)ncn2-c1ccc(C)cc1 — 2.7-fold higher, 38.8 µg/mL (≈ 146 µM)
- O=C(Nc1nccs1)c1c(O)c2c(n(Cc3ccco3)c1=O)CCCC2 — lower, < 0.3 µg/mL
- COc1ccc(C(=O)NCCc2cn3ccccc3n2)cc1 — 2.9-fold higher, 42.9 µg/mL (≈ 145 µM)
- COCc1cc(C)nc(SCC(=O)NCC2CCCO2)c1C#N (stereo unspecified) — higher, > 50.3 µg/mL
- O=c1cc(-c2ccccc2)nc(SCCOc2ccccc2Cl)[nH]1 — 36-fold lower, 0.4 µg/mL (≈ 1.11 µM)
- CC(=O)NCCCc1nc2ccccc2n1Cc1ccccc1F — 3.3-fold higher, 48.6 µg/mL (≈ 149 µM)
- Cc1cnc(C(=O)OCC(=O)Nc2ccc(C)c(S(=O)(=O)N3CCOCC3)c2)cn1 — higher, > 65.2 µg/mL
- Cc1ncc([N+](=O)[O-])n1CCOc1nonc1N — higher, > 38.1 µg/mL
- CC1CC(C)CN(C(=O)COC(=O)c2ccc3c(c2)OCO3)C1 (stereo unspecified) — 3.2-fold higher, 47 µg/mL (≈ 147 µM)
- COC(=O)Cn1cc(C(=O)C(F)(F)F)c2ccccc21 — within 1.5-fold, 13.2 µg/mL (≈ 46.3 µM)
- CCOC(=O)c1csc(-c2sccc2Br)n1 — within 1.5-fold, 18.7 µg/mL (≈ 58.8 µM)
- CCN(Cc1ccccc1)C(=O)CS(=O)(=O)c1ccccc1 — higher, > 47.6 µg/mL
- CN(CC(=O)Nc1cccc(F)c1)C(=O)c1ccc(-c2ccc(Cl)cc2)o1 — 2.6-fold lower, 5.6 µg/mL (≈ 14.5 µM)
